Test results published in patent US20260295053A1, “COMPOUNDS FOR DEGRADATION AND INHIBITION OF KRAS (G12D) PROTEIN” (Shenzhen Ionova Life Science Co., Ltd., priority 2023, published 2026).

Target: T1, KRAS (G12D) (Homo sapiens, UniProt P01116, G12D)
T1 construct: in-cell western with KRAS G12D antibody after 24 h
Test: KRAS (G12D) cellular degradation assay in AsPC-1 cells
Assay type: cell-based
Details: 24 hours, antibody fluorescence (Odyssey CLX), DC50 half-maximal degradation concentration
Protocol: ASPC-1 and PK-59 cellular assays ASPC-1 (ATCC cat. CRL-1682) and PK-59 (Nanjing Cobioer, Cat. No. CBP61184) were used in KRAS cellular degradation, pERK inhibition and proliferation assays. The two cell lines were maintained following vendor's instructions. For monitoring KRAS (G12D) cellular degradation and pERK biomarker inhibition, cells were seeded into a 96-well plate with 22,000 and 16,000 cells/well for assays in ASPC-1 and PK-59, respectively. Cells were incubated at 37° C. with 5% CO2 and cell density was monitored until ^~90% confluency was reached. Compounds were serially diluted at a 1:3 ratio and dispensed into each well at final concentrations ranging from […] to 1.5 nM. After incubation for 24 hours, the culture media were removed and the cells were subjected to fixation, permeabilization and blocking (Intercept blocking buffer, Li-cor). For KRAS (G12D) degradation, the cells were treated with primary antibody (KRAS G12D antibody, Cell Signaling Technologies, Cat. No. CST14429) and for β-actin (β-actin mAb, Beyotime, Cat. No. AF-5001), and followed by secondary antibodies, Anti-rabbit IgG (H+L) (DyLight™ 800 4×PEG Conjugate) or IRDye® 680RD Goat anti-Mouse IgG. For pERK inhibition assay, cells were treated with primary antibodies for pERK (Phospho-p44/42 MAPK (Erk1/2) (Thr202/Tyr204) (D13.14.4E) XP® Rabbit mAb, Cell Signaling Technologies, Cat. No. CST-4370) and β-actin (β-actin mAb, Beyotime, Cat. No. AF-5001), and followed by secondary antibodies, Anti-rabbit IgG (H+L) (DyLight™ 800 4×PEG Conjugate) or IRDye® 680RD Goat anti-Mouse IgG. Fluorescence signals were read on Odyssey CLX instrument. For cell proliferation assays, cells were seeded into a 96-well plate at 3,500 and 800 cells/well for assays in ASPC-1 and PK-59, respectively. Cells were incubated at 37° C. with 5% CO2 for overnight. Compounds were serially diluted at a 1:3 ratio and dispensed into each well at final concentrations ranging from […] to 1.5 nM. After incubation for 6 days, cell viability reagent (CellTiter Glo, Promega, Cat. No. G7573) was added to each well and luminescence was recorded on Molecular Devices Spectramax iD3 instrument. IC50, half-maximal inhibitory concentration for pERK inhibition or cell proliferation, and DC50, half-maximal degradation concentration in KRAS (G12D) cellular degradation were determined by fitting the corresponding dose response curves using GraphPad Prism software.
Wherein “A” means the value <10 nM, “B” means 10 nM<the value <100 nM, “C” means 100 nM<the value <1000 nM, and “D” means the value >1000 nM, in which, the value means the value of DC50 or IC50. NT means not tested.

T1 sequence (P01116 1-188 isoform P01116-2 G12D): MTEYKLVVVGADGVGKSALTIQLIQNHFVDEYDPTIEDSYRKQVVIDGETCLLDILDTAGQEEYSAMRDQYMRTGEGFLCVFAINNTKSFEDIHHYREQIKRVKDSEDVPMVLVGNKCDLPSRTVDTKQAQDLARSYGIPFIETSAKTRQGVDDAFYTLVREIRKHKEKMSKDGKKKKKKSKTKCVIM

Compound	DC50 [nM]
CCn1ncc2c(C#C[C@H](CO)NC(=O)[C@@H]3C[C@@H](O)CN3C(=O)[C@H](C(C)C)n3cc(-c4ccc(COc5c(-c6c(C)c(F)cc7[nH]ncc67)c(C6CC6)cc6c(N7C[C@@H]8C[C@H]7CN8)nc(O[C@H]7C[C@@H](OC)C7)nc56)cc4)nn3)cccc21 [Example 163, (2S,4R)-1-((2S)-2-(4-(4-(((4-((1S,4S)-2,5-diazabicyclo[2.2.1]heptan-2-yl)-6-cyclopropyl-2-((1r,3R)-3-methoxycyclobutoxy)-7-(6-fluoro-5-methyl-1H-indazol-4-yl)quinazolin-8-yl)oxy)methyl)phenyl)-1H-1,2,3-triazol-1-yl)-3-methylbutanoyl)-N—((R)-4-(1-ethyl-1H-indazol-4-yl)-1-hydroxybut-3-yn-2-yl)-4-hydroxypyrrolidine-2-carboxamide]	10 to 100
CCn1cc2cccc(C#C[C@H](CO)NC(=O)[C@@H]3C[C@@H](O)CN3C(=O)[C@H](C(C)C)n3cc(-c4ccc(COc5c(-c6c(C)c(F)cc7[nH]ncc67)c(C6CC6)cc6c(N7C[C@@H]8C[C@H]7CN8)nc(O[C@H]7C[C@H](OC)C7)nc56)cc4)nn3)c2n1 [Example 168, (2S,4R)-1-((2S)-2-(4-(4-(((4-((1S,4S)-2,5-diazabicyclo[2.2.1]heptan-2-yl)-6-cyclopropyl-7-(6-fluoro-5-methyl-1H-indazol-4-yl)-2-((1r,3S)-3-methoxycyclobutoxy)quinazolin-8-yl)oxy)methyl)phenyl)-1H-1,2,3-triazol-1-yl)-3-methylbutanoyl)-N—((R)-4-(2-ethyl-2H-indazol-7-yl)-1-hydroxybut-3-yn-2-yl)-4-hydroxypyrrolidine-2-carboxamide]	10 to 100
CO[C@@H](C)COc1nc(N2C[C@@H]3C[C@H]2CN3)c2cc(C3CC3)c(-c3c(C)c(F)cc4[nH]ncc34)c(OCc3ccc(-c4cn([C@H](C(=O)N5C[C@H](O)C[C@H]5C(=O)N[C@H](C#Cc5cncc6nn(C)cc56)CO)C(C)C)nn4)cc3)c2n1 [Example 185, (2S,4R)-1-((2S)-2-(4-(4-(((4-((1S,4S)-2,5-diazabicyclo[2.2.1]heptan-2-yl)-6-cyclopropyl-7-(6-fluoro-5-methyl-1H-indazol-4-yl)-2-((S)-2-methoxypropoxy)quinazolin-8-yl)oxy)methyl)phenyl)-1H-1,2,3-triazol-1l-yl)-3-methylbutanoyl)-4-hydroxy-N—((R)-1-hydroxy-4-(2-methyl-2H-pyrazolo[3,4-c]pyridin-4-yl)but-3-yn-2-yl)pyrrolidine-2-carboxamide]	10 to 100
CCn1nccc1-c1ccc([C@H](CO)NC(=O)[C@@H]2C[C@@H](O)CN2C(=O)[C@H](C(C)C)n2cc(-c3ccc(COc4c(-c5c(C)c(F)cc6[nH]ncc56)c(C5CC5)cc5c(N6C[C@H]7CN[C@H](C7)C6)nc(OC[C@H](C)OC)nc45)cc3)nn2)cc1 [Example 222, (2S,4R)-1-((2S)-2-(4-(4-(((4-((1R,5R)-3,6-diazabicyclo[3.2.1]octan-3-yl)-6-cyclopropyl-7-(6-fluoro-5-methyl-1H-indazol-4-yl)-2-((S)-2-methoxypropoxy)quinazolin-8-yl)oxy)methyl)phenyl)-1H-1,2,3-triazol-1-yl)-3-methylbutanoyl)-N—((R)-1-(4-(1-ethyl-1H-pyrazol-5-yl)phenyl)-2-hydroxyethyl)-4-hydroxypyrrolidine-2-carboxamide]	10 to 100
CCn1nccc1-c1ccc([C@H](CO)NC(=O)[C@@H]2C[C@@H](O)CN2C(=O)[C@H](C(C)C)n2cc(-c3ccc(COc4c(-c5c(C)c(F)cc6[nH]ncc56)c(C5CCC5)cc5c(N6C[C@@H]7C[C@H]6CN7)nc(OC6CCC7(CC6)COC7)nc45)cc3)nn2)cc1 [Example 137, (2S,4R)-1-((2S)-2-(4-(4-(((2-((2-oxaspiro[3.5]nonan-7-yl)oxy)-4-((1S,4S)-2,5-diazabicyclo[2.2.1]heptan-2-yl)-6-cyclobutyl-7-(6-fluoro-5-methyl-1H-indazol-4-yl)quinazolin-8-yl)oxy)methyl)phenyl)-1H-1,2,3-triazol-1-yl)-3-methylbutanoyl)-N—((R)-1-(4-(1-ethyl-1H-pyrazol-5-yl)phenyl)-2-hydroxyethyl)-4-hydroxypyrrolidine-2-carboxamide]	< 10
CCn1nccc1-c1ccc([C@H](CO)NC(=O)[C@@H]2C[C@@H](O)CN2C(=O)[C@H](C(C)C)n2cc(-c3ccc(COc4c(-c5c(C)c(F)cc6[nH]ncc56)c(C5CC5)cc5c(N6CCC(NC(C)=O)CC6)nc(OC[C@H](C)OC)nc45)cc3)nn2)cc1 [Example 226, (2S,4R)-1-((2S)-2-(4-(4-(((4-(4-acetamidopiperidin-1-yl)-6-cyclopropyl-7-(6-fluoro-5-methyl-1H-indazol-4-yl)-2-((S)-2-methoxypropoxy)quinazolin-8-yl)oxy)methyl)phenyl)-1H-1,2,3-triazol-1-yl)-3-methylbutanoyl)-N—((R)-1-(4-(1-ethyl-1H-pyrazol-5-yl)phenyl)-2-hydroxyethyl)-4-hydroxypyrrolidine-2-carboxamide]	10 to 100

Second part, the molecule after the results:

DC50 [nM]	Compound
< 10	CCn1nccc1-c1ccc([C@H](CO)NC(=O)[C@@H]2C[C@@H](O)CN2C(=O)[C@H](C(C)C)n2cc(-c3ccc(COc4c(-c5c(C)c(F)cc6[nH]ncc56)c(C5CC5)cc5c(N6CCCNCC6)nc(OC[C@H]6CCCO6)nc45)cc3)nn2)cc1 [Example 214, (2S,4R)-1-((2S)-2-(4-(4-(((6-cyclopropyl-4-(1,4-diazepan-1-yl)-7-(6-fluoro-5-methyl-1H-indazol-4-yl)-2-(((R)-tetrahydrofuran-2-yl)methoxy)quinazolin-8-yl)oxy)methyl)phenyl)-1H-1,2,3-triazol-1-yl)-3-methylbutanoyl)-N—((R)-1-(4-(1-ethyl-1H-pyrazol-5-yl)phenyl)-2-hydroxyethyl)-4-hydroxypyrrolidine-2-carboxamide]
< 10	Cc1ncsc1-c1ccc([C@H](CO)NC(=O)[C@@H]2C[C@@H](O)CN2C(=O)[C@H](C(C)C)n2cc(-c3ccc(COc4c(-c5c(C)c(F)cc6[nH]ncc56)c(C5CC5)cc5c(N6CCCNCC6)nc(OC[C@H]6CCCO6)nc45)cc3)nn2)cc1 [Example 213, (2S,4R)-1-((2S)-2-(4-(4-(((6-cyclopropyl-4-(1,4-diazepan-1-yl)-7-(6-fluoro-5-methyl-1H-indazol-4-yl)-2-(((R)-tetrahydrofuran-2-yl)methoxy)quinazolin-8-yl)oxy)methyl)phenyl)-1H-1,2,3-triazol-1-yl)-3-methylbutanoyl)-4-hydroxy-N—((R)-2-hydroxy-1-(4-(4-methylthiazol-5-yl)phenyl)ethyl)pyrrolidine-2-carboxamide]
< 10	Cc1ncsc1-c1ccc([C@H](CO)NC(=O)[C@@H]2C[C@@H](O)CN2C(=O)[C@H](C(C)C)n2cc(-c3ccc(COc4c(-c5c(C)c(F)cc6[nH]ncc56)c(C5CC5)cc5c(N6C[C@H]7C[C@@H]6CN7)nc(OC6CCOCC6)nc45)cc3)nn2)cc1 (single isomer, unassigned) [Example 5A]
< 10	CCn1nccc1-c1ccc([C@@H](NC(=O)[C@@H]2C[C@@H](O)CN2C(=O)[C@H](C(C)C)n2cc(-c3ccc(COc4c(-c5c(C)c(F)cc6[nH]ncc56)c(C5CC5)cc5c(N(C)[C@H]6CCNC6)nc(OC[C@@H]6CCCO6)nc45)cc3)nn2)[C@H](C)O)c2c1CC2 [Example 210, (2S,4R)-1-((2S)-2-(4-(4-(((6-cyclopropyl-7-(6-fluoro-5-methyl-1H-indazol-4-yl)-4-(methyl((S)-pyrrolidin-3-yl)amino)-2-(((S)-tetrahydrofuran-2-yl)methoxy)quinazolin-8-yl)oxy)methyl)phenyl)-1H-1,2,3-triazol-1-yl)-3-methylbutanoyl)-N-((1R,2S)-1-(5-(1-ethyl-1H-pyrazol-5-yl)bicyclo[4.2.0]octa-1(6),2,4-trien-2-yl)-2-hydroxypropyl)-4-hydroxypyrrolidine-2-carboxamide]
